# Data published in patent publication US11873521B2, “Steviol glycoside and production method therefor, and sweetener composition containing same” (SUNTORY HOLDINGS LIMITED, priority 2017, dated 2024).
# “Also recorded” adds a separate entry of the source.
# Assays:
# Solubility in water = assay type: physicochemical
# [1] = Evaluation of flavors of novel steviol glycosides in powder forms; assay type: in vivo; conditions: only β-form
# Experimental: Flavors of Novel steviol glycosides 1 and 2 in powder forms were evaluated. Specifically, Compounds 15 (corresponding to Novel steviol glycoside 1) and 17 (corresponding to Novel steviol glycoside 2) obtained by chemical syntheses were subjected to high performance liquid chromatography (HPLC) to isolate only the β-form, which was made into a powder form and subjected to flavor evaluation. Panelists trained about sensory attributes of sweeteners members: Suntory Beverage and Food Ltd.) evaluated.
# [2] = background art; cited from earlier work
# [3] = samples adjusted to final Brix of 2 in terms of sucrose; cited from earlier work
smiles,measurement,setting,value
C=C1C[C@@]23CCC4[C@](C)(C(=O)O[C@@H]5OC(CO)[C@@H](O)[C@H](O)C5O[C@@H]5OC(C)[C@H](O)[C@H](O)C5O)CCC[C@@]4(C)[C@@H]2CCC1(O[C@@H]1OC(CO)[C@@H](O)[C@H](O[C@@H]2OC(CO)[C@@H](O)[C@H](O)C2O)C1O[C@@H]1OC(C)[C@H](O)[C@H](O)C1O)C3 (some centres unmarked) [Compound 15],solubility in water,Solubility in water,did not dissolve in water sufficiently
same,undesirable flavor such as bitterness,[1],less undesirable flavor such as bitterness
same,Presence of sweetness,[1]; listed as Novel steviol glycoside 1,had sweetness; also recorded: Present
"C=C1C[C@@]23CC[C@H]4[C@@](C)(CCC[C@@]4(C)C(=O)O[C@@H]4O[C@H](CO)[C@@H](O)[C@H](O)[C@H]4O)[C@@H]2CC[C@]1(O[C@@H]1O[C@H](CO)[C@@H](O)[C@H](O[C@@H]2O[C@H](CO)[C@@H](O)[C@H](O)[C@H]2O)[C@H]1O[C@@H]1O[C@H](CO)[C@@H](O)[C@H](O)[C@H]1O)C3 [Reb.A, rebaudioside A]",sweetness relative to sugar,[2],350-450 times the sweetness of sugar
same,sweetness level assumed for preparing beverage samples,[3],300
C=C1C[C@@]23CCC4[C@](C)(C(=O)O[C@@H]5OC(CO)[C@@H](O)[C@H](O[C@@H]6OC(CO)[C@@H](O)[C@H](O)C6O)C5O[C@@H]5OC(C)[C@H](O)[C@H](O)C5O)CCC[C@@]4(C)[C@@H]2CCC1(O[C@@H]1OC(CO)[C@@H](O)[C@H](O[C@@H]2OC(CO)[C@@H](O)[C@H](O)C2O)C1O[C@@H]1OC(C)[C@H](O)[C@H](O)C1O)C3 (some centres unmarked) [Compound 17],undesirable flavor such as bitterness,[1],less undesirable flavor such as bitterness
same,Presence of sweetness,[1]; listed as Novel steviol glycoside 2,had sweetness; also recorded: Present
same,Flavor characteristics,"[1]; listed as Novel steviol glycoside 2, bitterness",No bitterness
same,Flavor characteristics,"[1]; listed as Novel steviol glycoside 2, overall flavor",Flavor resembled the mixture
C=C1C[C@@]23CC[C@H]4[C@@](C)(CCC[C@@]4(C)C(=O)O[C@@H]4O[C@H](CO)[C@@H](O)[C@H](O)[C@H]4O)[C@@H]2CC[C@]1(O[C@@H]1O[C@H](CO)[C@@H](O)[C@H](O)[C@H]1O[C@@H]1O[C@H](CO)[C@@H](O)[C@H](O)[C@H]1O)C3 [Stevioside],sweetness relative to sugar,[2],250-300 times the sweetness of sugar
"C=C1C[C@@]23CC[C@H]4[C@@](C)(CCC[C@@]4(C)C(=O)O[C@@H]4O[C@H](CO)[C@@H](O)[C@H](O)[C@H]4O[C@@H]4O[C@H](CO)[C@@H](O)[C@H](O)[C@H]4O)[C@@H]2CC[C@]1(O[C@@H]1O[C@H](CO)[C@@H](O)[C@H](O[C@@H]2O[C@H](CO)[C@@H](O)[C@H](O)[C@H]2O)[C@H]1O[C@@H]1O[C@H](CO)[C@@H](O)[C@H](O)[C@H]1O)C3 [Reb.D, rebaudioside D]",sweetness level assumed for preparing beverage samples,[3],250
